Measurements: ChEMBL document CHEMBL5042492, “Noncovalent CDK12/13 dual inhibitors-based PROTACs degrade CDK12-Cyclin K complex and induce synthetic lethality with PARP inhibitor” (Eur J Med Chem, 2022)
Active and inactive are the calls of the source. No cut-off for these calls is given here.

Legend:
[1] = target: T1, Protein cereblon/Cyclin-K/Cyclin-dependent kinase 12 (Homo sapiens, UniProt O75909+Q9NYV4+Q96SW2); experiment: Protac activity at human CRBN/CDK12/CycK in human Bel-7402 cells assessed as degradation of CDK12 at 3 uM measured after 24 hrs by Western blotting assay; assay type: cell-based
[2] = target: CDK12/Cyclin K (Homo sapiens, UniProt Q9NYV4); experiment: Inhibition of human CDK12 (696 to 1082 residues) /cyclinK (1 to 300 residues) using ac-YSPTSPpSYSPTSFpS-YSPTSPpSY-[PEG2]-RR-amid peptide as substrate in presence of ATP measured after 2 hrs by ADP-Glo kinase assay; assay type: protein-complex assay
[3] = target: T1, Protein cereblon/Cyclin-K/Cyclin-dependent kinase 12; experiment: Protac activity at human CRBN/CDK12/CycK in human MDA-MB-231 cells assessed as degradation of CDK12 at 3 uM measured after 24 hrs by Western blotting assay; assay type: cell-based
[4] = target: T1, Protein cereblon/Cyclin-K/Cyclin-dependent kinase 12; experiment: Protac activity at human CRBN/CDK12/CycK in human Bel-7402 cells assessed as RNAP2 CTD Ser2 phosphorylation level at 0.1 to 30 uM measured after 24 hrs by Western blotting assay; assay type: cell-based; conditions: dose 0.1-30 µM
[5] = target: T1, Protein cereblon/Cyclin-K/Cyclin-dependent kinase 12; experiment: Protac activity at human CRBN/CDK12/CycK in human MDA-MB-231 cells assessed as RNAP2 CTD Ser2 phosphorylation level at 0.1 to 30 uM measured after 24 hrs by Western blotting assay; assay type: cell-based; conditions: dose 0.1-30 µM
[6] = target: T1, Protein cereblon/Cyclin-K/Cyclin-dependent kinase 12; experiment: Protac activity at human CRBN/CDK12/CycK in human Bel-7402 cells assessed as downregulation of Mcl-1 level upto 30 uM measured after 24 hrs by Western blotting assay; assay type: cell-based; conditions: dose microM <=30, time 24.0 hrs
[7] = target: T1, Protein cereblon/Cyclin-K/Cyclin-dependent kinase 12; experiment: Protac activity at human CRBN/CDK12/CycK in human MDA-MB-231 cells assessed as downregulation of Mcl-1 level upto 30 uM measured after 24 hrs by Western blotting assay; assay type: cell-based; conditions: dose microM <=30, time 24.0 hrs

T1 sequence (O75909 whole entry, looked up, the tested form may be a part): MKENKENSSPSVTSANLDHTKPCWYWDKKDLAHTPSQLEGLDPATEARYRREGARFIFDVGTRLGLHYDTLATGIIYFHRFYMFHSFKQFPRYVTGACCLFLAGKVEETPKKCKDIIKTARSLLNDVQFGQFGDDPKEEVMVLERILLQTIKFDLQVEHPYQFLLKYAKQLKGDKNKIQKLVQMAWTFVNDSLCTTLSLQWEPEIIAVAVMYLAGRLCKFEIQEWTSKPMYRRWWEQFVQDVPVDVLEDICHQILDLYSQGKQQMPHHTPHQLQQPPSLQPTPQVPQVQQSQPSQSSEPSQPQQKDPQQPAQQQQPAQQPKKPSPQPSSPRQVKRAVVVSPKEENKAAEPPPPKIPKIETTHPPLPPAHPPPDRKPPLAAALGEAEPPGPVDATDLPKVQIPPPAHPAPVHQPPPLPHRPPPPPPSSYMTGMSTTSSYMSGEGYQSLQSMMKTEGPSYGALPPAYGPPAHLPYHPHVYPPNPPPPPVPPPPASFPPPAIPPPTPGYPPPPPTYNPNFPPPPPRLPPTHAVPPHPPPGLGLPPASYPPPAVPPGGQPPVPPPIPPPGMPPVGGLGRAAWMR
T1 sequence (Q96SW2 whole entry, looked up, the tested form may be a part): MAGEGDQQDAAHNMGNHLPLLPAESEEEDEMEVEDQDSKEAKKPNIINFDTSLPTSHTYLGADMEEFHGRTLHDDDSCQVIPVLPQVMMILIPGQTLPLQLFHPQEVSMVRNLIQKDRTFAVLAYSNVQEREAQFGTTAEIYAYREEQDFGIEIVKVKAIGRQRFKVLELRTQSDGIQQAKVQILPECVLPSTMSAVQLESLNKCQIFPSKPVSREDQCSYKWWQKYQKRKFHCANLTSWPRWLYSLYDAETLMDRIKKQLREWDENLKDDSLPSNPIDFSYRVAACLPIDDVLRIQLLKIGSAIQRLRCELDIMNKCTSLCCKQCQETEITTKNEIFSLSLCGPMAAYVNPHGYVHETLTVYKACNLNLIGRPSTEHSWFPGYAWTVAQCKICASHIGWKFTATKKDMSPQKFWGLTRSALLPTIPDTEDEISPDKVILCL
T1 sequence (Q9NYV4 whole entry, looked up, the tested form may be a part): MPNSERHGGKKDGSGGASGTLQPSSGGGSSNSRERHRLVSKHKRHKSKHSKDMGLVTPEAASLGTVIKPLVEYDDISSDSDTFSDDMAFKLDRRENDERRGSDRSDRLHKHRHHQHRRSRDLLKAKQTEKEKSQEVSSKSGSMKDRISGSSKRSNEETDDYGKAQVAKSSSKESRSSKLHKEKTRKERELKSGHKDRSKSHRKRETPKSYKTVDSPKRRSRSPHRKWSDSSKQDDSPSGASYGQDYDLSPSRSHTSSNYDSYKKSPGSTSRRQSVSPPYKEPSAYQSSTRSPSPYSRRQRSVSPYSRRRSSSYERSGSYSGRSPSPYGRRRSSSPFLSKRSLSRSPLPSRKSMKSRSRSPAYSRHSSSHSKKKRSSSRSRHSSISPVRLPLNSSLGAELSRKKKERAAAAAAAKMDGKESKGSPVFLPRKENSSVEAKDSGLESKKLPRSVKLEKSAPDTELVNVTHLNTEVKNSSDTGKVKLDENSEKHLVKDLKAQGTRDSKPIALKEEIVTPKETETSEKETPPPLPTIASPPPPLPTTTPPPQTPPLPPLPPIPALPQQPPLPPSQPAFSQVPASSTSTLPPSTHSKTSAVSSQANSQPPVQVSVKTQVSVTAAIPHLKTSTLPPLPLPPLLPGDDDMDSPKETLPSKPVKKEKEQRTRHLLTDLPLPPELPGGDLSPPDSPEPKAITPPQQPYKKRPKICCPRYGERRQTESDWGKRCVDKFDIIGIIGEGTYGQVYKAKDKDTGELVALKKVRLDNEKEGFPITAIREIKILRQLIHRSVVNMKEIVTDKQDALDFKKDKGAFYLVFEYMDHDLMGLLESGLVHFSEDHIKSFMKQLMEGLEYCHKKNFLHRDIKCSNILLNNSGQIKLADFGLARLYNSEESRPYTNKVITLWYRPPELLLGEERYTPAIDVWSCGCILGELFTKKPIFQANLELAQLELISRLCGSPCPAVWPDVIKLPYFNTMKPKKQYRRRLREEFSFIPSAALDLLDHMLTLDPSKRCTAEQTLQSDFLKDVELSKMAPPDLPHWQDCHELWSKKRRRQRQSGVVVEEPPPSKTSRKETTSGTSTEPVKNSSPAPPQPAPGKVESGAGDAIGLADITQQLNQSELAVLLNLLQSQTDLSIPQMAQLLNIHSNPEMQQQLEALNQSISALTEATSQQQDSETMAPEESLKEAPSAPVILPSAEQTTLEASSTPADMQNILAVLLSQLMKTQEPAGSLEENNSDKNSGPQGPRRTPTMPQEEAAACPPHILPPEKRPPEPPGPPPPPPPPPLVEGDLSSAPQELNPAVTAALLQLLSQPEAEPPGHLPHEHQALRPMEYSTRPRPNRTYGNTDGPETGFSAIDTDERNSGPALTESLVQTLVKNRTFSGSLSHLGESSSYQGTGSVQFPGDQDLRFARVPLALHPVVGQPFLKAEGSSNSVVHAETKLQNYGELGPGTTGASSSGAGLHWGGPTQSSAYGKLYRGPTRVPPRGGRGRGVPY
CDK12/Cyclin K, sequence (O75909 whole entry, the tested form may be a part): as the sequence (O75909 whole entry, looked up, the tested form may be a part) above
CDK12/Cyclin K, sequence (Q9NYV4 whole entry, the tested form may be a part): as the sequence (Q9NYV4 whole entry, looked up, the tested form may be a part) above

Activity [1] | IC50 [2] [nM] | Activity [3] | Activity [4] | Activity [5] | Activity [6] | Activity [7] | Structure (SMILES)
Active | 119 | Active | – | – | – | – | CC(C)n1cnc2c(NCc3nc4cc(F)c(NCCCCCCNC(=O)COc5cccc6c5C(=O)N(C5CCC(=O)NC5=O)C6=O)cc4[nH]3)nc(N3CCOCC3)nc21 (configuration not stated)
– | – | – | Active | Active | Active | Active | CN(C)C/C=C/C(=O)Nc1ccc(C(=O)N2CCC[C@@H](Nc3ncc(Cl)c(-c4c[nH]c5ccccc45)n3)C2)cc1
